Patent US6737383B1, “Herbicidal oxadiazolidines” (priority 1999, dated 2004)

Assays:
sunflower = assay: Test E sunflower; assay type: in vivo, Helianthus annuus; conditions: Postemergence
Method: […] All plant species were grown using normal greenhouse practices. Crop and weed species include annual bluegrass (Poa annua), blackgrass (Alopecurus myosuroides), black nightshade (Solanum nigra), chickweed (Stellaria media), common poppy (Papaver rhoeas), deadnettle (Lamium amplexicaule), downy brome (Bromus tectorum), field violet (Viola arvensis), galium (Galium aparine), green foxtail (Setaria viridis), Italian ryegrass (Lolium multiflorum), jointed goatgrass (Aegilops cylindrica), kochia (Kochia scoparia), lambsquarters (Chenopodium album), littleseed canarygrass (Phalaris minor), rape (Brassica napus), redroot pigweed (Amaranthus retroflexus), Russian thistle (Salsola kali), scentless chamomile (Matricaria inodora), spring barley (Hordeum vulgare), sugar beet (Beta vulgaris), sunflower (Helianthus annuus), ivyleaf speedwell (Veronica hederaefolia), spring wheat (Triticum aestivum), winter wheat (Triticum aestivum), wild buckwheat (Polygonum convolvulus), wild mustard (Sinapis arvensis), wild oat (Avena fatua), windgrass (Apera spica-venti) and winter barley (Hordeum vulgare).
Treated plants and untreated controls were maintained in a greenhouse for approximately 21 to 28 days, after which all treated plants were compared to untreated controls and visually evaluated. […] A dash response (-) means no test result.

scentless chamomile = assay: Test E scentless chamomile; assay type: in vivo, Matricaria inodora; conditions: Preemergence
spring barley = assay: Test E spring barley; assay type: in vivo, Hordeum vulgare; conditions: Preemergence
windgrass = assay: Test E windgrass; assay type: in vivo, Apera spica-venti; conditions: Postemergence
Method: Compounds evaluated in this test were formulated in a non-phytotoxic solvent mixture which included a surfactant and applied to plants that were in the 1- to 4-leaf stage (postemergence application). A mixture of sandy loam soil and greenhouse potting mix in a 60:40 ratio was used for the postemergence test.
Plantings of these crops and weed species were adjusted to produce plants of appropriate size for the postemergence test. All plant species were grown using normal greenhouse practices. […]
Treated plants and untreated controls were maintained in a greenhouse for approximately 21 to 28 days, after which all treated plants were compared to untreated controls and visually evaluated. […]

Amaranthus rudis (AMATA) = assay: Test F preemergence, alone and in mixture with rimsulfuron, AMATA; assay type: in vivo; conditions: 21 days after treatment, 0-100 scale
Method: (§1) Abutilon theophrasti (ABUTH), Chenopodium album (CHEAL), Amaranthus rudis (AMATA), Setaria faberii (SETFA), Panicum dichotomiflorum (PANDI), and Digitaria sanguinalis (DIGSA) were grown from seed in pots of an artificial potting mixture in a greenhouse. Compounds of the present invention were applied at 70 and 105 g ai/ha preemergence. Rimsulfuron was applied at 8.8 and 17.5 g ai/ha. Mixtures of the compounds of the present invention and rimsulfuron were also applied.
(§2) Following application, the plants were maintained by watering as needed. A fertilizer solution of Peter's 20-20-20 (10 pounds/5 gallons of water) plus Sprint 330, a Iron Chelate micronutrient, (113.5 grams/5 gallons of water) was injected into the water with an Anderson fertilizer injection system to provide approximately 219 ppm of nitrogen with each watering. Artificial lighting was used to supplement natural light to produce a 14 hour photoperiod and: an additional one hour light period was used between 1:00 am to 2:00 am for a night interruption. Greenhouse temperatures were targeted for 27° C. in the day and 21° C. at night. At 21 days after treatment, all plants were evaluated for injury as compared to control plants that were sprayed only with non-phytotoxic solvent.
(§3) Colby's equation was used to calculate the expected additive herbicidal effect of the mixtures of Compound 21 and the mixture partners listed above. […]

[1] = tested on: Panicum dichotomiflorum (PANDI); assay: Test F preemergence, alone and in mixture with rimsulfuron, PANDI; assay type: in vivo; conditions: 21 days after treatment, 0-100 scale
Method: as §1, §2, §3

Alexandergrass = assay: Test D Alexandergrass; assay type: in vivo, Brachiaria plantaginea; conditions: Postemergence, 0 to 100 scale
common pursiane = assay: Test D common purslane; assay type: in vivo, Portulaca oleracea; conditions: Postemergence, 0 to 100 scale
dallisgrass = assay: Test D dallisgrass; assay type: in vivo, Paspalum dilatatum; conditions: Postemergence, 0 to 100 scale
purple nutsedge = assay: Test D purple nutsedge; assay type: in vivo, Cyperus rotundus; conditions: Postemergence, 0 to 100 scale
Green foxtail [2] = assay: Test D green foxtail; assay type: in vivo; conditions: Rate 250 g/ha; Postemergence; 0 to 100 scale
Green foxtail [3] = assay: Test D green foxtail; assay type: in vivo; conditions: Postemergence, 0 to 100 scale, 0 no injury, 100 complete control
[4] = Rate 500 g/ha, 0 to 100 scale, 0 no effect, 100 complete control
[5] = Rate 125 g/ha, 0 to 100 scale (0 no effect, 100 complete control)
[6] = Rate 500 g/ha, 0 to 100 scale where 0 is no effect and 100 is complete control
[7] = Rate 250 g/ha, 0 to 100 scale where 0 is no effect and 100 is complete control
[8] = Alone: Cmpd. rate 70, Rimsulfuron 0
[9] = Alone: Cmpd. rate 105, Rimsulfuron 0
[10] = Rate 16 g/ha, 0 no injury, 100 complete control
[11] = Rate 32 g/ha, 0 no injury, 100 complete control
[12] = Rate 64 g/ha, 0 no injury, 100 complete control
[13] = Rate 125 g/ha, 0 no injury, 100 complete control

`CC(C)N(C(=O)n1oc(=O)n(C(C)C)c1=O)c1ccc(Cl)cc1` [Compound 114] was tested, and the “Plant response rating, Sunflower” value (sunflower; Rate 125 g/ha, 0 to 100 scale) was 10, the “Plant response rating, Sunflower” value (sunflower; Rate 250 g/ha, 0 to 100 scale (0 no effect, 100 complete control)) was 10 and the “Plant response rating, Sunflower” value (sunflower; [4]) was 15. For the same compound, the “Plant response rating, Scentless chamo” value (scentless chamomile; [5]) was 30, the “Plant response rating, Scentless chamo” value (scentless chamomile; Rate 250 g/ha, 0 to 100 scale) was 30 and the “Plant response rating, Scentless chamo” value (scentless chamomile; [6]) was 10. For the same compound, the “Plant response rating, Spring Barley” value (spring barley; [5]) was 0, the “Plant response rating, Spring Barley” value (spring barley; Rate 250 g/ha, 0 to 100 scale) was 0 and the “Plant response rating, Spring Barley” value (spring barley; [6]) was 20.

`CC(C)N(C(=O)n1oc(=O)n(C(C)C)c1=O)c1ccc(F)cc1` [Compound 131] was tested, and the “Plant response rating, Sunflower” value (sunflower; Rate 62 g/ha, 0 to 100 scale) was 10, the “Plant response rating, Sunflower” value (sunflower; Rate 125 g/ha, 0 to 100 scale) was 0 and the “Plant response rating, Sunflower” value (sunflower; [4]) was 0. For the same compound, the “Sunflower plant response rating” value (sunflower; [7]) was 0, the “Plant response rating, Windgrass” value (windgrass; Rate 62 g/ha, 0 to 100 scale) was 85 and the “Windgrass plant response rating” value (windgrass; [7]) was 90. For the same compound, the “AMATA Observed” value (Amaranthus rudis (AMATA); [8]) was 50%, the “AMATA Observed” value (Amaranthus rudis (AMATA); [9]) was 40% and the “PANDI Observed” value [1, 8] was 100%. For the same compound, the “PANDI Observed” value [1, 9] was 95%, the “Plant response rating, Alexandergrass” value (Alexandergrass; [10]) was 0 and the “Plant response rating, Alexandergrass” value (Alexandergrass; [11]) was 50. For the same compound, the “Plant response rating, Alexandergrass” value (Alexandergrass; [12]) was 100, the “Plant response rating, Alexandergrass” value (Alexandergrass; [13]) was 100 and the “Plant response rating, Alexandergrass” value (Alexandergrass; Rate 250 g/ha) was 100. For the same compound, the “Plant response rating, C. purslane” value (common pursiane; [10]) was 0, the “Plant response rating, C. purslane” value (common pursiane; [11]) was 0 and the “Plant response rating, C. purslane” value (common pursiane; [12]) was 0. For the same compound, the “Plant response rating, C. purslane” value (common pursiane; [13]) was 0, the “Plant response rating, C. purslane” value (common pursiane; Rate 250 g/ha) was 0 and the “Plant response rating, Dallisgrass” value (dallisgrass; [10]) was 20. The “Plant response rating, Dallisgrass” value (dallisgrass; [11]) was 60, the “Plant response rating, Dallisgrass” value (dallisgrass; [12]) was 100 and the “Plant response rating, Dallisgrass” value (dallisgrass; [13]) was 100. The “Plant response rating, Dallisgrass” value (dallisgrass; Rate 250 g/ha) was 100, the “Plant response rating, Purple nutsedge” value (purple nutsedge; [10]) was 0 and the “Plant response rating, Purple nutsedge” value (purple nutsedge; [11]) was 0. For the same compound, the “Purple nutsedge plant response rating” value (purple nutsedge; [12]) was 0, the “Purple nutsedge plant response rating” value (purple nutsedge; [13]) was 30 and the “Plant response rating, Purple nutsedge” value (purple nutsedge; Rate 250 g/ha) was 100. The “Plant response rating, Spring Barley” value (spring barley; [5]) was 20, the “Spring Barley plant response rating (0 to 100 scale)” value (spring barley; Rate 250 g/ha) was 70 and the “Plant response rating, Spring Barley” value (spring barley; [6]) was 85. For the same compound, the “Plant response rating, Green foxtail” value (Green foxtail [2]) was 100, the “Plant response rating, Green foxtail” value (Green foxtail [3]; Rate 64 g/ha) was 100 and the “Plant response rating, Green foxtail” value (Green foxtail [3]; Rate 125 g/ha) was 100.
